Assay results published in ChEMBL document CHEMBL1201862, “PubChem BioAssay data set” (2004).
Active and inactive are the calls of the source. How the calls were made is not given here.

What was measured:
[1] = biological target: NACHT, LRR and PYD domains-containing protein 3 (Homo sapiens, UniProt Q96P20); assay: NALP3 inhibitors in yeast, dose response, luminescent (AID 488799); assay type: functional
Exodeoxyribonuclease V = biological target: T1, Exodeoxyribonuclease V (Escherichia coli (strain K12), UniProt P04993+P07648+P08394); assay: RecBCD inhibition via phage-restricted bacterial growth – absorbance, V66 E. coli, mutant T4 phage, counter-screen for AddAB inhibitor project, dose response (AID 492957); assay type: functional, cell-based, Escherichia coli str. K-12 substr. MG1655
T1 sequence (P04993 whole entry): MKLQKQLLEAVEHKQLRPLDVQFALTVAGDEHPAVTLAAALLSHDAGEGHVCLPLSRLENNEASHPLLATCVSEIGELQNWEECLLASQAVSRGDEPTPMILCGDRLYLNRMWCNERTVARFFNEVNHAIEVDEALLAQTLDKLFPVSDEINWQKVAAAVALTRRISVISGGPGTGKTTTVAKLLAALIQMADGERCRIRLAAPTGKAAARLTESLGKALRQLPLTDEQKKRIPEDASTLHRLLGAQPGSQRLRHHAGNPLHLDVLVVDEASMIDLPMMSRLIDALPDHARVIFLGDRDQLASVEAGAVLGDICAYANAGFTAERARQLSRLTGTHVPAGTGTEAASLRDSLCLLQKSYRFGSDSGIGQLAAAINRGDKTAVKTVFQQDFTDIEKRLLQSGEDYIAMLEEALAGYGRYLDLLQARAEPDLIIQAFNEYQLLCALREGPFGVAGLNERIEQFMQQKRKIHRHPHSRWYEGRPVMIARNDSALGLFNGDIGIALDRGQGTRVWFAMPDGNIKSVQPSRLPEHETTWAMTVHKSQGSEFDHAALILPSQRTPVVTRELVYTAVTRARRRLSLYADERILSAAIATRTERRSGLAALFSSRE
T1 sequence (P07648 whole entry): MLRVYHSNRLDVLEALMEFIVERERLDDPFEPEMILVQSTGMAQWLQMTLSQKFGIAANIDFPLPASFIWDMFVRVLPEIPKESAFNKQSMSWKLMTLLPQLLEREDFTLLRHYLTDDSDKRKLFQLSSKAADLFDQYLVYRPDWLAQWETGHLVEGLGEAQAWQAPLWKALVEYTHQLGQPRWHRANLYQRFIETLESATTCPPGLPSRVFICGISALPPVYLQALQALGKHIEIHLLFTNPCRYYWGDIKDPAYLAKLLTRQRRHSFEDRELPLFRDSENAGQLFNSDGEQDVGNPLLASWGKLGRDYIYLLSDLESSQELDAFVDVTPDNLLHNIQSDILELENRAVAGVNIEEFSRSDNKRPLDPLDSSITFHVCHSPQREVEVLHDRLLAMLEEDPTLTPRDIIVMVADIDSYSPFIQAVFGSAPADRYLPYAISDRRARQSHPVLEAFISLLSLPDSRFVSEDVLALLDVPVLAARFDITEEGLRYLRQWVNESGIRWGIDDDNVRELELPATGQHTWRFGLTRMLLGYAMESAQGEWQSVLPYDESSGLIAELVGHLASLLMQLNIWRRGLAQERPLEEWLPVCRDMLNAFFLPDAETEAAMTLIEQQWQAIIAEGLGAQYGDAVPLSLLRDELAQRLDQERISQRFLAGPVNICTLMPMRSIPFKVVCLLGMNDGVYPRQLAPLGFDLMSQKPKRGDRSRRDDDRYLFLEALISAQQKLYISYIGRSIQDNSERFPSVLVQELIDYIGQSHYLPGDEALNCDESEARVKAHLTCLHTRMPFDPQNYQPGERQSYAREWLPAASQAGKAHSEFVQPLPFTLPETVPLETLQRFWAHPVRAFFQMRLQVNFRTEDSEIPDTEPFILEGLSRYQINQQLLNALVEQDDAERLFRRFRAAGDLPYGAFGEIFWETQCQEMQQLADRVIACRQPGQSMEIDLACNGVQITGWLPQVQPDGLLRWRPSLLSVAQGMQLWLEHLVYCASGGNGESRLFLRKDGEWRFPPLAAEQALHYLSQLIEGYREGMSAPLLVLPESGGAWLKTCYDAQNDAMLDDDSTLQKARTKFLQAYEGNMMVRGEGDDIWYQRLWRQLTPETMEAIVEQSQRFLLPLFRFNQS
T1 sequence (P08394 whole entry): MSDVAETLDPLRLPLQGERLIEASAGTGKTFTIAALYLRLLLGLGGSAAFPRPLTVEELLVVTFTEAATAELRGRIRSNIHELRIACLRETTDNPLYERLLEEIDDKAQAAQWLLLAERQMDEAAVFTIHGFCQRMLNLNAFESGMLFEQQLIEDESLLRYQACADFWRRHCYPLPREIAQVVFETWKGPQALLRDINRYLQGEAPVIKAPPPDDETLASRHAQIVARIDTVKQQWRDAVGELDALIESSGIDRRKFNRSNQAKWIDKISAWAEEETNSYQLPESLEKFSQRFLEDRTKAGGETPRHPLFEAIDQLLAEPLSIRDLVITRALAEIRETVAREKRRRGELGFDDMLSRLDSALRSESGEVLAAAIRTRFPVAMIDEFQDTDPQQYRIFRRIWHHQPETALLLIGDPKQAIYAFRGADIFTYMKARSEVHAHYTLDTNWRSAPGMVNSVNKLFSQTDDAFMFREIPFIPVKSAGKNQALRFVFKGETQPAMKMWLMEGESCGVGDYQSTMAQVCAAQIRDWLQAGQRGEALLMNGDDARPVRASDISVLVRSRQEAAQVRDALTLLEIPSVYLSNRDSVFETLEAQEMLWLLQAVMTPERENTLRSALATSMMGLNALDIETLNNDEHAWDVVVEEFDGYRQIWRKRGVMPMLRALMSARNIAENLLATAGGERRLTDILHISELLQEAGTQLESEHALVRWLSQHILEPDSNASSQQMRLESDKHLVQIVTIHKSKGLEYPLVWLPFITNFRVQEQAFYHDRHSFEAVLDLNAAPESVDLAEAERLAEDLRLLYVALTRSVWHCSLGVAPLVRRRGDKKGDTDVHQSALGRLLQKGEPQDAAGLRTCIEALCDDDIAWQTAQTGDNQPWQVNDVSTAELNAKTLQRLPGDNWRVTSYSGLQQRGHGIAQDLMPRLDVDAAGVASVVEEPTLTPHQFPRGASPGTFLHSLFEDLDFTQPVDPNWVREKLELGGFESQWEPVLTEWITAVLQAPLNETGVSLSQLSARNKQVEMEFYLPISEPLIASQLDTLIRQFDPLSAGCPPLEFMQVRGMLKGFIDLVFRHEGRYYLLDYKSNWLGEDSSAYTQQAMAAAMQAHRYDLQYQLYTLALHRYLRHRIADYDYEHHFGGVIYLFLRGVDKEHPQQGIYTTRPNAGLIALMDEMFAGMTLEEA

NACHT, LRR and PYD domains-containing protein 3, sequence (Q96P20 whole entry, the tested form may be a part): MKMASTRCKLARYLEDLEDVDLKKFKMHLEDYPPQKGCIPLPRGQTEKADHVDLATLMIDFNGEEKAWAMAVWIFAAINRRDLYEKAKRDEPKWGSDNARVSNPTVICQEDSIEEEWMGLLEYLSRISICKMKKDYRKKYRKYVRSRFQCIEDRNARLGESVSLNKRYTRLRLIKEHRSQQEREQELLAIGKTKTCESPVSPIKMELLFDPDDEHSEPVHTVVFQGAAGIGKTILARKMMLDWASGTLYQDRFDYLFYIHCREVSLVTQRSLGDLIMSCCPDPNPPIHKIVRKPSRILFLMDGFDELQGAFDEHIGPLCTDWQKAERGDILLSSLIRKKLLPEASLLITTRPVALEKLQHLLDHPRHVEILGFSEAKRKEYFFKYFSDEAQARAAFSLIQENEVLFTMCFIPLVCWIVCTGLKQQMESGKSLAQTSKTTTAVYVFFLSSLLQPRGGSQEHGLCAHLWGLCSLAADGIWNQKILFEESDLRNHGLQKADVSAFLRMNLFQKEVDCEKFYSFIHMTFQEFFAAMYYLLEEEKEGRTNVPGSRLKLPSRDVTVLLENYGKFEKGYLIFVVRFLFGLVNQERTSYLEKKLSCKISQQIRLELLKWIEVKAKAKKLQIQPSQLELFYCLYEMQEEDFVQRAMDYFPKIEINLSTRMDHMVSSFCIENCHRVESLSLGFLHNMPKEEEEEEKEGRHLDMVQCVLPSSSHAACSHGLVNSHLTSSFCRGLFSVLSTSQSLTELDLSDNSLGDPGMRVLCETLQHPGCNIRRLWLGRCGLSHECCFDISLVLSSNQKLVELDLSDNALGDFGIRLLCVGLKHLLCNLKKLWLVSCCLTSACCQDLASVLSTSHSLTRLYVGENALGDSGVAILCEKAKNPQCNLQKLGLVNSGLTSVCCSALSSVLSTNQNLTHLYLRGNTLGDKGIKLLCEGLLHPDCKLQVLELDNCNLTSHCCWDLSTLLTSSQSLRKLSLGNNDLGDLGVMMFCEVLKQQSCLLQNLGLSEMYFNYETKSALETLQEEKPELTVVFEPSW

SMILES	IC50 [1]	IC50 (Exodeoxyribonuclease V)
COc1ccc(CNC(=O)c2c(C)oc3c2C(=O)c2ccccc2C3=O)cc1	9.7 µM (active)	–
CCSc1nsc(NC(=O)Nc2cccc(F)c2)n1	1.97 µM (active)	> 119 µM (inactive)
O=[N+]([O-])c1ccc(/C=N/n2cnc3ccccc32)s1	–	> 119 µM (inactive)
